Assay results as given in article PMC6899670 (The Febs Journal, 2019).
Where two headings read alike, the source gives them in different places.

How the values were obtained:
[1] = molecular target: T1, BpDdl (Burkholderia pseudomallei D-alanine-D-alanine ligase) (Burkholderia pseudomallei, UniProt Q63QJ9); conditions: substrate inhibition at high ATP; 10 mM D-Ala, pH 8, 10 mM MgCl2, 100 mM KCl, 30 °C; enzyme co-purified with AMP
T1 construct: gene ddl

[2] = molecular target: T1, BpDdl (Burkholderia pseudomallei D-alanine-D-alanine ligase); experiment: biochemical
[3] = molecular target: T1, BpDdl (Burkholderia pseudomallei D-alanine-D-alanine ligase); experiment: biochemical; remark: listed apart in the source

T1 sequence (Q63QJ9 whole entry, looked up): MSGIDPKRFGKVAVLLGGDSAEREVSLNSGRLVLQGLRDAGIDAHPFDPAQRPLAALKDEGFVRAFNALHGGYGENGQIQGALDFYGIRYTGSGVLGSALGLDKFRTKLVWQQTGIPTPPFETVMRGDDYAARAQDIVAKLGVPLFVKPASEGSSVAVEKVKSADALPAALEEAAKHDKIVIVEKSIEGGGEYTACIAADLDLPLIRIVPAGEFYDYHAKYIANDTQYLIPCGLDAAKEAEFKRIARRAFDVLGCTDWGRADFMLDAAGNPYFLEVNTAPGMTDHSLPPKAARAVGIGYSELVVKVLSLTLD

## Nc1ncnc2c1ncn2[C@@H]1O[C@H](COP(=O)(O)OP(=O)(O)OP(=O)(O)O)[C@@H](O)[C@H]1O [ATP]
[1]
  K i,ATP: 3.16 ± 0.59 mM

## N[C@@H]1CON=C1O [DCS]
[2]
  Ki: 0.1 mM

## CC(=O)NCc1ccccc1Cl [compound identified in the fragment screen]
[3]
  Ki: 10 mM
